The source of these data is patent US9670166B2, “Substituted bicyclic dihydropyrimidinones and their use as inhibitors of neutrophil elastase activity” (Boehringer Ingelheim International GmbH, priority 2013, dated 2017).

Data set [1] is described as follows: Metabolic stability with human liver microsomes. The settings on record: pooled human liver microsomes 1 mg/ml, test compound 1 μM, 37° C., NADPH. Background: Liver microsomes are a subcellular fraction often used to study metabolism.
Data set [2] is described as follows: Metabolic stability with human hepatocytes. Format: in vitro ADME. The settings on record: human hepatocyte suspension, 1 μM, scaled by well stirred model.
Protocol: The cells are incubated for six hours (incubator, orbital shaker) and samples (25 μl) are taken at 0, 0.5, 1, 2, 4 and 6 hours. Samples are transferred into acetonitrile and pelleted by centrifugation (5 min) The supernatant is transferred to a new 96-deepwell plate, evaporated under nitrogen and resuspended. The decline of parent compound is analyzed by LC-MS/MS.
The intrinsic clearance CL_[sequence] is calculated as follows: CL_[sequence]=Dose/AUC=(C0/CD)/(AUD+clast/k)*1,000/60
(C0: initial concentration in the incubation [μM], CD: cell density of vital cells [10^6 cells/mL], AUD: area under the data [μM*h], clast: concentration of last data point [μM], k: slope of the regression line for parent decline [h^−1])
The calculated in vitro hepatic intrinsic clearance can be scaled up to the intrinsic in vivo hepatic clearance and used to predict hepatic in vivo blood clearance (CL) by the use of a liver model (well stirred model): CL_[sequence]_INVIVO [ml/min/kg]=(CL_[sequence] [μL/min/10^6 cells]*hepatocellularity [10^6 cells/g liver]*liver factor [g/kg bodyweight])/1,000 CL [ml/min/kg]=CL_[sequence]_INVIVO [ml/min/kg]*hepatic blood flow [ml/min/kg]/(CL_[sequence]_INVIVO [ml/min/kg]+hepatic blood flow [ml/min/kg]) Qh [%]=CL [ml/min/kg]/hepatic blood flow [ml/min/kg])
The next data set concerns Caco-2 cells. The experiment in a line: Drug transport across human Caco-2 cells. The class given is in vitro ADME. The settings on record: for Efflux ratio: PEBA/PEAB; for PEBA: basal-to-apical; for PEBA / PEAB: Caco-2 monolayers, pH 7.2, 37° C.; for PEAB: apical-to-basal.
A short description of a further data set: Aqueous solubility. The class given is physicochemical. The settings on record: McIlvaine buffer pH 6.8, 2.5% DMSO, 24 h shaking. How it is done: Assay for Determination of Aqueous Solubility […] After 24 h of shaking, the solutions or suspensions are filtered and analyzed by LC-UV. The amount dissolved in buffer is compared to the amount dissolved in the acetonitrile/water (1/1) solution.

Values joined by “and” are separate entries in the source; they are usually repeats but may differ in a detail not shown here. Identical values can stand only once.

Description for Caco-2 cells: Assay for Determination of Drug Transport Across Human Caco-2 Cells
The assay provides information on the potential of a compound to pass the cell membrane, on the extent of oral absorption as well as on whether the compound is actively transported by uptake and/or efflux transporters.
The compounds are assigned to permeability/absorption classes by comparison of the AB permeabilities with the AB permeabilities of reference compounds with known in vitro permeability and oral absorption in the human. Identical or similar permeabilities in both transport directions indicate passive permeation, vectorial permeability points to additional active transport mechanisms. […] Active transport is concentration-dependently saturable.
Caco-2 cells (1-2*10^5 cells/cm^2 area) are seeded on filter inserts (Costar transwell polycarbonate or PET filters, 0.4 μm pore size) and cultured (DMEM) for 10 to 25 days. Compounds are dissolved in appropriate solvent (like DMSO, 1-20 mM stock solutions). […] The transport solution (TL) is applied to the apical or basolateral donor side for measuring A-B or B-A permeability (3 filter replicates), respectively. The receiver side contains HTP-4 buffer supplemented with 2% BSA. […] Sampled receiver volumes are replaced with fresh receiver solution.

Regarding `CCNC(=O)N1C(=O)N(c2ccnc(C(F)(F)F)c2)C2=C(C(=O)CC2)C1c1ccc(C#N)cc1` (racemic) [Example 54.2], in data set [1], the “t1/2 INVITRO” value was >2.17 h.

`CN(C)C(=O)CN1C(=O)N(c2cccc(C(F)(F)F)c2)C2=C(C(=O)CC2)C1c1ccc(C#N)cc1` (stereo not drawn) [Example 6.2]: in data set [2], the “CL (predicted human hepatic in vivo blood clearance)” value was 6 mL/min/kg.

With `N#Cc1ccc(C2C3=C(CCC3=O)N(c3cccc(C(F)(F)F)c3)C(=O)N2CC(=O)N2CCC2)cc1` (stereo not drawn) [Example 6.3], the “t1/2 INVITRO” value in data set [1] was >2.17 h. For the same molecule, the “CL (predicted human hepatic in vivo blood clearance)” value in data set [2] is 4 mL/min/kg.

On to `CNC(=O)N1C(=O)N(c2cccc(C(F)(F)F)c2)C2=C(C(=O)CC2)[C@H]1c1ccc(C#N)cc1` [Example 7.1A, (R)-4-(4-Cyanophenyl)-N-methyl-2,5-dioxo-1-(3-(trifluoromethyl)phenyl)-4,5,6,7-tetrahydro-1H-cyclopenta[d]pyrimidine-3(2H)-carboxamide], for which the “CL (predicted human hepatic in vivo blood clearance)” value in data set [2] was 3 mL/min/kg.

As for `N#Cc1ccc([C@@H]2C3=C(CCC3=O)N(c3cccc(C(F)(F)F)c3)C(=O)N2C(=O)NCCO)cc1` [Example 7.2A, (R)-4-(4-Cyanophenyl)-N-(2-hydroxyethyl)-2,5-dioxo-1-(3-(trifluoromethyl)phenyl)-4,5,6,7-tetrahydro-1H-cyclopenta[d]pyrimidine-3(2H)-carboxamide], in data set [2], the “CL (predicted human hepatic in vivo blood clearance)” value was 0 mL/min/kg.

On to `N#Cc1ccc(C2C3=C(CCC3=O)N(c3cccc(C(F)(F)F)c3)C(=O)N2C(=O)NCCCO)cc1` (stereo not drawn) [Example 7.3], for which the “t1/2 INVITRO” value in data set [1] is >2.17 h. In addition, the “CL (predicted human hepatic in vivo blood clearance)” value in data set [2] was 7 mL/min/kg. In addition, the Efflux ratio in the data set with Caco-2 cells worked out at 7.1.

Take `C[S+]([O-])CCNC(=O)N1C(=O)N(c2cccc(C(F)(F)F)c2)C2=C(C(=O)CC2)C1c1ccc(C#N)cc1` (stereo not drawn) [Example 7.6]: the “t1/2 INVITRO” value in data set [1] was >2.17 h.

Regarding `CS(=O)(=O)N1C(=O)N(c2cccc(C(F)(F)F)c2)C2=C(C(=O)CC2)[C@H]1c1ccc(C#N)cc1` [Example 9A, (R)-4-(3-(Methylsulfonyl)-2,5-dioxo-1-(3-(trifluoromethyl)phenyl)-2,3,4,5,6,7-hexahydro-1H-cyclopenta[d]pyrimidin-4-yl)benzonitrile], in data set [2], the “CL (predicted human hepatic in vivo blood clearance)” value was 0 mL/min/kg.

Take `CCS(=O)(=O)c1cc(C#N)ccc1C1NC(=O)N(c2cccc(C(F)(F)F)c2)C2=C1C(=O)CC2` (stereo not drawn) [Example 14, 4-(2,5-Dioxo-1-(3-(trifluoromethyl)phenyl)-2,3,4,5,6,7-hexahydro-1H-cyclopenta[d]pyrimidin-4-yl)-3-(ethylsulfonyl)benzonitrile]: in data set [2], the “CL (predicted human hepatic in vivo blood clearance)” value was 4 mL/min/kg.

`CS(=O)(=O)c1cc(C#N)ccc1C1NC(=O)N(c2cccc(C(F)F)c2)C2=C1C(=O)CC2` (stereo not drawn) [Example 15.4, 4-(1-(3-(difluoromethyl)phenyl)-2,5-dioxo-2,3,4,5,6,7-hexahydro-1H-cyclopenta[d]pyrimidin-4-yl)-3-(methylsulfonyl)benzonitrile]: the “CL (predicted human hepatic in vivo blood clearance)” value in data set [2] was 0 mL/min/kg.

Take `CS(=O)(=O)c1cc(C#N)ccc1C1C2=C(CCC2=O)N(c2cccc(C(F)(F)F)c2)C(=O)N1CC(=O)N1CC2CC2C1` (stereo not drawn) [Example 22.4]: in data set [1], the “t1/2 INVITRO” value is >2.17 h.

`CS(=O)(=O)c1cc(C#N)ccc1[C@@H]1C2=C(CCC2=O)N(c2cccc(C(F)(F)F)c2)C(=O)N1CC#N` [Example 23, (S)-4-(3-(Cyanomethyl)-2,5-dioxo-1-(3-(trifluoromethyl)phenyl)-2,3,4,5,6,7-hexahydro-1H-cyclopenta[d]pyrimidin-4-yl)-3-(methylsulfonyl)benzonitrile]: the “CL (predicted human hepatic in vivo blood clearance)” value in data set [2] is 0 mL/min/kg.

Take `CS(=O)(=O)c1cc(C#N)ccc1C1C2=C(CCC2=O)N(c2cccc(C(F)(F)F)c2)C(=O)N1CCCO` (stereo not drawn) [Example 24.1]: the “t1/2 INVITRO” value in data set [1] is 1.67 h.

On to `CN1C(=O)N(c2cccc(C(F)(F)F)c2)C2=C(C(=O)CC2)[C@H]1c1ccc(C#N)cc1S(C)(=O)=O` [Example 25, (S)-4-(3-Methyl-2,5-dioxo-1-(3-(trifluoromethyl)phenyl)-2,3,4,5,6,7-hexahydro-1H-cyclopenta[d]pyrimidin-4-yl)-3-(methylsulfonyl)benzonitrile], for which the “CL (predicted human hepatic in vivo blood clearance)” value in data set [2] was 2 mL/min/kg.

As to `C[C@H](O)CNC(=O)N1C(=O)N(c2cccc(C(F)(F)F)c2)C2=C(C(=O)CC2)C1c1ccc(C#N)cc1` (stereo partly drawn) [Example 41.1], in data set [1], the “t1/2 INVITRO” value is >2.17 h. Also, the “CL (predicted human hepatic in vivo blood clearance)” value in data set [2] was 2 mL/min/kg. For the same molecule, the Efflux ratio with Caco-2 cells is 8.9 and 4.8.

For the molecule `C[C@H](CO)NC(=O)N1C(=O)N(c2cccc(C(F)(F)F)c2)C2=C(C(=O)CC2)C1c1ccc(C#N)cc1` (stereo partly drawn) [Example 41.4], the “t1/2 INVITRO” value in data set [1] was >2.17 h. In data set [2], the “CL (predicted human hepatic in vivo blood clearance)” value is 5 mL/min/kg. In the data set on Caco-2 cells, the Efflux ratio came to 8.7.

As for `N#Cc1ccc(C2C3=C(CCC3=O)N(c3cccc(C(F)(F)F)c3)C(=O)N2C(=O)NC2(CO)CC2)cc1` (stereo not drawn) [Example 41.5], in the data set on Caco-2 cells, the Efflux ratio is recorded as 8.7 and the PEBA is 77 ×10⁻⁶ cm/s.

For `N#Cc1ccc(C2C3=C(CCC3=O)N(c3cccc(C(F)(F)F)c3)C(=O)N2C(=O)NC2CCOCC2)cc1` (stereo not drawn) [Example 41.16], in data set [1], the “t1/2 INVITRO” value is >2.17 h. Further, in the data set on Caco-2 cells, the Efflux ratio came to 1.0.

`CC(C)(O)CCNC(=O)N1C(=O)N(c2cccc(C(F)(F)F)c2)C2=C(C(=O)CC2)C1c1ccc(C#N)cc1` (stereo not drawn) [Example 41.17]: in data set [1], the “t1/2 INVITRO” value is >2.17 h. Also, the “CL (predicted human hepatic in vivo blood clearance)” value in data set [2] was 3 mL/min/kg. Further, the Efflux ratio with Caco-2 cells worked out at 3.5.

Regarding `CC(C)(O)CNC(=O)N1C(=O)N(c2cccc(C(F)(F)F)c2)C2=C(C(=O)CC2)[C@H]1c1ccc(C#N)cc1` [Example 41A, (R)-4-(4-Cyanophenyl)-N-(2-hydroxy-2-methylpropyl)-2,5-dioxo-1-(3-(trifluoro-methyl)phenyl)-4,5,6,7-tetrahydro-1H-cyclopenta[d]pyrimidine-3(2H)-carboxamide], the “CL (predicted human hepatic in vivo blood clearance)” value in data set [2] was 0 mL/min/kg.

`N#Cc1ccc(C2C3=C(CCC3=O)N(c3cccc(C(F)(F)F)c3)C(=O)N2C(=O)N[C@@H]2CCC[C@H]2O)cc1` (stereo partly drawn) [Example 42.3]: in data set [1], the “t1/2 INVITRO” value is >2.17 h. The Aqueous solubility (commonly the concentration that dissolves in the medium under given conditions) in the data set “Aqueous solubility” amounted to 20 µg/mL. Also, in the data set with Caco-2 cells, the Efflux ratio is 2.4, the PEAB is 36.2 ×10⁻⁶ cm/s and the PEBA was determined as 86 ×10⁻⁶ cm/s.

For the molecule `N#Cc1ccc(C2C3=C(CCC3=O)N(c3cccc(C(F)(F)F)c3)C(=O)N2C(=O)N[C@H]2COC[C@H]2O)cc1` (stereo partly drawn) [Example 42.6], in data set [2], the “CL (predicted human hepatic in vivo blood clearance)” value is 5 mL/min/kg. For the same molecule, the Aqueous solubility in the data set “Aqueous solubility” stood at 67 µg/mL.

For `N#Cc1ccc([C@@H]2C3=C(CCC3=O)N(c3cccc(C(F)(F)F)c3)C(=O)N2C(=O)N[C@H]2CCC[C@@H]2O)cc1` [Example 45.4], the “t1/2 INVITRO” value in data set [1] is >2.17 h. In “Aqueous solubility”, this molecule displayed an Aqueous solubility of 28 µg/mL. In the data set with Caco-2 cells, the Efflux ratio stood at 2.0, the PEAB was 38.1 ×10⁻⁶ cm/s and the PEBA came out at 77.2 ×10⁻⁶ cm/s.

On to `CS(=O)(=O)c1cc(C#N)ccc1[C@@H]1C2=C(CCC2=O)N(c2cccc(C(F)(F)F)c2)C(=O)N1C(=O)NC1CC1` [Example 47.4], for which, in data set [1], the “t1/2 INVITRO” value was >2.17 h. The molecule further yielded an Aqueous solubility in “Aqueous solubility” of 19 µg/mL. In the data set with Caco-2 cells, this molecule registered a PEAB of 7.74 ×10⁻⁶ cm/s and a PEBA of 85.5 ×10⁻⁶ cm/s.

Take `CC(C)NC(=O)N1C(=O)N(c2cccc(C(F)(F)F)c2)C2=C(C(=O)CC2)[C@H]1c1ccc(C#N)cc1S(C)(=O)=O` [Example 47.5]: the “t1/2 INVITRO” value in data set [1] is >2.17 h. The same molecule returned an Aqueous solubility in “Aqueous solubility” of 16 µg/mL. Moreover, in the data set on Caco-2 cells, the PEAB came out at 19.2 ×10⁻⁶ cm/s and the PEBA turned out to be 86.7 ×10⁻⁶ cm/s.

For `CNC(=O)N1C(=O)N(c2cccc(C(F)(F)F)c2)C2=C(C(=O)CC2)C1c1ccc(C#N)cn1` (stereo not drawn) [Example 50.1], in data set [2], the “CL (predicted human hepatic in vivo blood clearance)” value is 1 mL/min/kg.

On to `CNC(=O)N1C(=O)N(c2cccc(C(F)F)c2)C2=C(C(=O)CC2)C1c1ccc(C#N)cc1` (stereo not drawn) [Example 52.1], for which the “t1/2 INVITRO” value in data set [1] is >2.17 h. The Aqueous solubility in “Aqueous solubility” turned out to be 41 µg/mL. In the data set with Caco-2 cells, the Efflux ratio is 1.0, the PEAB stood at 57.1 ×10⁻⁶ cm/s and the PEBA amounted to 58.3 ×10⁻⁶ cm/s.

Take `N#Cc1ccc(C2C3=C(CCC3=O)N(c3cccc(C(F)F)c3)C(=O)N2C(=O)NCCO)cc1` (stereo not drawn) [Example 52.3]: the “t1/2 INVITRO” value in data set [1] is >2.17 h. For the same molecule, the Aqueous solubility in “Aqueous solubility” was 91 µg/mL.

In the case of `N#Cc1ccc([C@@H]2C3=C(CCC3=O)N(c3cccc(C(F)F)c3)C(=O)N2C(=O)NCCCO)cc1` [Example 52A, (R)-4-(4-Cyanophenyl)-1-(3-(difluoromethyl)phenyl)-N-(3-hydroxypropyl)-2,5-dioxo-4,5,6,7-tetrahydro-1H-cyclopenta[d]pyrimidine-3(2H)-carboxamide], the “CL (predicted human hepatic in vivo blood clearance)” value in data set [2] is 8 mL/min/kg.

For `CS(=O)(=O)c1cc(C#N)ccc1C1C2=C(CCC2=O)N(c2cccc(C(F)F)c2)C(=O)N1C(=O)NC1CC1` (stereo not drawn) [Example 53.3], in “Aqueous solubility”, the Aqueous solubility was found to be 34 µg/mL.

`CS(=O)(=O)c1cc(C#N)ccc1[C@H]1NC(=O)N(c2cccc(C(F)(F)F)c2)C2=C1C(=O)CC2` [example 10A, (S)-4-(2,5-Dioxo-1-(3-(trifluoromethyl)phenyl)-2,3,4,5,6,7-hexahydro-1H-cyclopenta[d]pyrimidin-4-yl)-3-(methylsulfonyl)benzonitrile]: in data set [2], the “CL (predicted human hepatic in vivo blood clearance)” value is 0 mL/min/kg. Further, the “AB permeability (comparison in words)” value with Caco-2 cells (Caco-2, compared to example 44 disclosed in US 2011/0034433) is given as “improved AB permeability”.
